Results from paper PMC2880701 (Journal of the American Chemical Society, 2009).

What was measured:
HDAC2 = HDAC2 (Homo sapiens, UniProt Q92769); type: biochemical; conditions: read-out: HDAC inhibitory activity IC50, HDAC2
HDAC1 = HDAC1 (Homo sapiens, UniProt Q13547); test: homogeneous trypsin-coupled fluorigenic HDAC assay, HDAC1; conditions: isostere versus corresponding depsipeptide natural product (active thiol forms)
HDAC1, sequence (Q13547 whole entry): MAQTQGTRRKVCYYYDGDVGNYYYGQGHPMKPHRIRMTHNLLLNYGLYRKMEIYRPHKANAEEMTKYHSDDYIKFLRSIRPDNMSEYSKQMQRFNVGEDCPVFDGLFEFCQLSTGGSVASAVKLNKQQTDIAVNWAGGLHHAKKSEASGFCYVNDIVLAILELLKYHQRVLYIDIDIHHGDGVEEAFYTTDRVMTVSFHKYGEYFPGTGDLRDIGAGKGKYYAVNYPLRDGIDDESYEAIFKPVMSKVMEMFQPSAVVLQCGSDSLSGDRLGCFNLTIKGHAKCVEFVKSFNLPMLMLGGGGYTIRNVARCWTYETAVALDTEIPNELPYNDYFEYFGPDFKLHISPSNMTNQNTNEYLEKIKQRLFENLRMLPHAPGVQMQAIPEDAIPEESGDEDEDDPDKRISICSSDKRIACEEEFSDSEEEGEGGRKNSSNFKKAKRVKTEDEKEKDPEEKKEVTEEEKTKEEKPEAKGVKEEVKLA

HDAC2, sequence (Q92769 whole entry): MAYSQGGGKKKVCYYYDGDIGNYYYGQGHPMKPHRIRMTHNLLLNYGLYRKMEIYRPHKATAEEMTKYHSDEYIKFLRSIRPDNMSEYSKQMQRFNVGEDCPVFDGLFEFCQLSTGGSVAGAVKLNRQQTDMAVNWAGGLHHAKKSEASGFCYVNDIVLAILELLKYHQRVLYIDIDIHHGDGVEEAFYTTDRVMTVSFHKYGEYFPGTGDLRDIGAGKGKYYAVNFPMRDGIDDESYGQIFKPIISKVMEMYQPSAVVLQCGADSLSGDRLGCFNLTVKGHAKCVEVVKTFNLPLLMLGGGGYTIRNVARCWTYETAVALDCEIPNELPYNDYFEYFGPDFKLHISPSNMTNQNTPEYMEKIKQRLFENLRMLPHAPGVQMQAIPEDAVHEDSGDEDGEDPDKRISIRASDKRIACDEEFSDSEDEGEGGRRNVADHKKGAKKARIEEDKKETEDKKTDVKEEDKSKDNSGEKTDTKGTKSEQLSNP

SMILES	IC50 (HDAC2)	fold less potent against HDAC1 than the parent natural product (HDAC1)
CCCCCCCC(=O)SCC/C=C/[C@@H]1CC(=O)NCc2nc(cs2)C2=N[C@@](C)(CS2)C(=O)N[C@@H](C(C)C)C(=O)N1 [Largazole Isostere (11)]	> 3000 nM	
CC(C)[C@@H]1NC(=O)[C@]2(C)CSC(=N2)c2csc(n2)CNC(=O)C[C@@H](/C=C/CCS)NC1=O [Largazole Isostere Thiol (31)]		9 fold
